From patent EP0237411A1, “(Piperidino-3)propoxy-5p-cymene, its acetyl, acetoxy and hydroxy derivatives, salts of these products, process for the preparation of these compounds and medicines containing at least one of these products as active principle” (INSTITUT DE RECHERCHES CHIMIQUES ET BIOLOGIQUES APPLIQUEES …, priority 1986, dated 1987)
Read-outs that look alike come from different tables or passages of the source.

Legend:
[1] = tested on: récepteurs α-adrénergiques; assay: Adrenolytic activity in vivo in the rat: protection against death induced by i.v. noradrenaline; conditions: 50 mg/kg P.O, 30 min before i.v. noradrenaline (0,4 mg/kg)
Experimental: 3. Détermination de l'activité adrénolytique "in vivo" chez le rat
. La noradrénaline injectée à fortes doses par voie intraveineuse provoque la mort de 1OO % des animaux dans les 15 min qui suivent son injection. La mort survient par oedème pulmonaire dû à l'hypertension artérielle induite principalement par la stimulation des récepteurs α-adrénergiques.
. L'administration préalable de substances α-adrénolytiques par voie orale permet de réduire la toxicité de la noradrénaline.
Les produits B 1O2O - B 1O21 - B 1O37 - B 1O59 sont administrés par voie orale 3O min avant l'injection intraveineuse de noradrénaline (O,4 mg/kg).

[2] = tested on: effet hypertenseur de la noradrénaline; assay: Urethral specificity of alpha-blocking activity in vivo in the rabbit: inhibition of noradrenaline-induced rise of arterial and urethral pressure; design: species or system lapin; conditions: for ED50: Oryctolagus cuniculus, intravenous administration; for R DI50 (a) DI50 (u): ratio of arterial DI50 to urethral DI50
Source text: 4. Spécificité urétrale de l'activité alpha bloquante déterminée in vivo chez le lapin :
a) - Principe de la mesure
. La noradérnaline (I.V.) provoque des augmentations dépendantes des doses de la pression artérielle et de la pression urétrale. Les substances adrénolytiques alpha antagonisent ces augmentations de pression.
. Pour les produits B 1020 - B 1037 et B 1059 administrés par voie veineuse, nous avons déterminé les doses inhibant de 50 p. cent (DI₅₀ ) l'effet de la noradrénaline au niveau artériel et urétral et évaluer le rapport R de ces DI₅₀ .

[3] = tested on: canal déférent isolé de rat; assay: α-adrenolytic action in vitro: antagonism of noradrenaline-induced contractions of isolated rat vas deferens (pA2); assay type: cell-based; conditions: pA2 against noradrenaline, read-out: Action α-bloquante vis-à-vis de la noradrénaline PA2 sur canal déférent isolé (converted)
Source text: 2. Détermination de l'action α-adrénolytique "in vitro" sur le canal déférent du rat.
La noradrénaline provoque des contractions du canal déférent isolé de rat. La présence dans le bain de l'organe de substances α-bloquantes antagonise ces contractions.
L'utilisation de concentrations croissantes de substances α-bloquantes permet de calculer : . la PA₂ des composés sur le canal déférent de rat.
La PA₂ étant le logarithme changé de signe de la concentration molaire des produits B 1O2O - B 1O21 - B 1O37 - -B 1O59 en présence de laquelle il faut multiplier par deux la concentration de noradrénaline pour obtenir le même effet qu'en l'absence dudit produit.

[4] = Acute toxicity test in the mouse (oral); conditions: in vivo, read-out: Mortalité en %
Source text: 1. Tests de toxicité aiguë chez la souris
Les résultats sont rapportés dans le tableau 1.

[5] = arterial pressure, read-out: Doses inhibant de 50 p.cent (DI50) l'effet hypertenseur de la noradrénaline au niveau artériel DI50 (a)
[6] = urethral pressure, read-out: Doses inhibant de 50 p.cent (DI50) l'effet hypertenseur de la noradrénaline au niveau urétral DI50 (u)

Structure (SMILES) | % de protection contre la mort [1] [%] | ED50 [2, 5] [mg/kg] | ED50 [2, 6] [mg/kg] | R DI50 (a) DI50 (u) [2] | Kb [3] [nM] | mortality ([4]; 100 mg/kg) [%] | mortality ([4]; 1000 mg/kg) [%]
Cc1ccc(C(C)C)c(OCCCN2CCCCC2)c1 [B 1020, chlorhydrate du [(pipéridino-3)propoxy]-3 p.cymène] | 80 | > 3 | 1.7 | > 1,7 | 302 | 0 | 40
CC(=O)c1cc(C(C)C)c(OCCCN2CCCCC2)cc1C [B 1021, chlorhydratede l'acétyl-2-[(pipéridino-3)propoxy]-5 p.cymène] | 40 |  |  |  | 1740 | 20 | 100
Cc1cc(OCCCN2CCCCC2)c(C(C)C)cc1O [B 1037, chlorhydratede l'hydroxy-2-[(pipéridino-3)propoxy]-5 p.cymène] | 50 | > 3 | 0.5 | > 6 | 151 | 0 | 100
CC(=O)Oc1cc(C(C)C)c(OCCCN2CCCCC2)cc1C [B 1059, chlorhydratede l'acétoxy-2-[(pipéridino-3)propoxy]-5 p.cymène] | 50 | > 3 | 0.8 | > 3,7 | 126 | 0 | 100
CC(=O)Oc1cc(C(C)C)c(OCCN(C)C)cc1C [Thymoxamine, chlorhydrate de thymoxamine, reference compound] | 80 | 2.9 | 0.7 | 4,1 | 56.2 | 0 | 100
